The record followed here is patent US20160272937A1, “METHODS OF GENERATING INTERMEDIATE MESODERM CELLS FROM HUMAN PLURIPOTENT STEM CELLS” (THE BRIGHAM AND WOMEN'S HOSPITAL, INC., priority 2013, published 2016).

Test [1] has as its system hPSCs (hESC and hiPSC lines). Kind of test: Intermediate mesoderm differentiation: PAX2/LHX1 immunostaining. Type of test: cell-based, human. As to conditions: CHIR pre-treatment 48 hours compared to 24 or 36 hours, all time points. The protocol: Mesendoderm differentiation—the media is changed to Advanced RPMI (A-RPMI, Invitrogen) supplemented with 1×L-glutamax and 1× penicillin/streptomycin and either CHIR99021 (CHIR, Stemgent), human Wnt3a (R&D systems), and/or human activin A (R&D systems) at the doses described. Definitive endoderm differentiation—cells are treated with A-RPMI+1×L-glu+1×P/S+5 μM CHIR for 24 hours, then A-RPMI+1×Lglu+1×P/S+100 ng/mL of activin A for 2-3 days. Hepatic differentiation—cells at the definitive endoderm stage are treated with A-RPMI+1×L-glu+1×P/S+1×B27 supplement (Invitrogen)+20 ng/mL BMP-4 (R&D systems)+10 ng/mL FGF2 (Invitrogen) for 5 days, then A-RPMI+1×L-glu+1×P/S+1×B27+10 ng/mL HGF for 5 days, then HCM Hepatocyte Culture Medium (Lonza) supplemented with 20 ng/mL Oncostatin M and 10 ng/mL HGF (Peprotech) for 5 days. Pancreatic differentiation—cells at the definitive endoderm stage are treated with DMEM/F12+2% FBS (Hyclone)+50 ng/mL FGF7 (R&D systems) for 2 days, then high-glucose DMEM (Mediatech)+1% B27+2 μM retinoic acid (Sigma)+0.25 μM KAAD cyclopamine (EMD Millipore)+100 ng/mL recombinant human Noggin (R&D systems) for 4 days, then high-glucose DMEM+1% B27+100 ng/mL Noggin+300 nM indolactam V (Stemgent)+1 μM ALK5 inhibitor II (Axxora) for 4 days. Anterior foregut endoderm differentiation—cells at the definitive endoderm stage are treated with DMEM/F12+1×L-glu+1×B27+200 ng/mL Noggin+10 μM SB431542 (Stemgent) for 3 days. For hindgut endoderm differentiation, cells at the definitive endoderm stage were treated with A-RPMI+1×L-glu+1×P/S+2% FBS+500 ng/mL FGF4 (R&D systems)+5 μM CHIR for 4 days. […]
Nuclei can be counterstained with DAPI (Sigma). […] Immunofluorescence is visualized using an inverted fluorescence microscope (Nikon Eclipse Ti, Tokyo, Japan). Quantification is performed by counting a minimum of five random fields at 10× magnification. […]

Another test relates to hPSC-derived SIX2+ cells. Kind of test: Response of hPSC-derived SIX2+ cells to canonical Wnt signaling (CHIR). Type of test: cell-based, human. As for the experimental part: To test the competence of hPSC-derived SIX2+ cells to respond to canonical Wnt signaling, the Inventors treated cells on day 6 of differentiation with […] CHIR for 24 hours, followed by withdrawal of CHIR. […] Furthermore, hPSC-derived SIX2+ cells explanted into dissociated-reaggregated mouse embryonic kidneys formed organizing clusters of cells that expressed LTL (FIG. 7I). The Inventors therefore concluded that the ability of hPSCderived PAX2+LHX1+ cells to be differentiated into cells expressing multiple markers of kidney CMand that could form tubule like structures in response to Wnt signaling was consistent with the behavior and function of nephrogenic IM cells.

Where [2] appears, read: 5 mM CHIR for 24 hours on day 6, read on day 8, compared with cells not treated with CHIR.

On to `Cc1c[nH]c(-c2cnc(NCCNc3ccc(C#N)cn3)nc2-c2ccc(Cl)cc2Cl)n1` [CHIR99021], for which, in test [1], the PAX2 expression result is “less PAX2 expression”. In addition, in the test on hPSC-derived SIX2+ cells (setting [2]), the SIX2 expression result is given as “downregulation of SIX2 expression” and the “expression of proximal tubule marker LTL” value is reported as “increased expression”. Moreover, the cell morphology result in the test on hPSC-derived SIX2+ cells (within 24 hours of 5 mM CHIR treatment) is listed as “formation of tubular-like structures”.
